Patent publication US20230248718A1, “PHARMACEUTICAL COMBINATION OF ANTISPASMODIC AND ANXIOLYTIC AGENT” (priority 2022, published 2023)
Where a name gives a salt, the structure may show the parent alone.

Experiments:
[1] = cited from earlier work
[2] = Description: Therefore, drug-interaction studies were undertaken by the inventors and the samples were evaluated for chemical stability.
[3] = oral, 80 mg strength IR tablets; cited from earlier work
[4] = cited from earlier work; remark: listed apart in the source

## CNC1=Nc2ccc(Cl)cc2C(c2ccccc2)=[N+]([O-])C1.Cl [Chlordiazepoxide HCl, Chlordiazepoxide hydrochloride]
[1]; after discontinuation
  plasma levels after administration is discontinued: decline slowly over a period of several days
[1]; in vivo
  half-life: 24 to 48 h
  time for peak blood levels to be reached: several hours

## CCOc1ccc(/C=C2\NCCc3cc(OCC)c(OCC)cc32)cc1OCC [Drotaverine HCl, Drotaverine hydrochloride]
[2]
  chemical stability / degradation in acidic environment: best chemical stability
  degradation in basic conditions: degrades significantly
  degradation in oxidative conditions / peroxide solution: degrades significantly

## CCOc1ccc(/C=C2\NCCc3cc(OCC)c(OCC)cc32)cc1OCC [Drotaverine]
[3]
  drug absorption from small intestine: ~90%
[4]
  oral LD50: > 1000 mg/Kg body weight
